The source of these data is paper PMC12395388 (Regulatory toxicology and pharmacology : RTP, 2024).

For data set [1] the following is noted: published by FDA as of September 4, 2024, ref FDA, 2024a; cited from earlier work.
The conditions of data set [2]: PC1 most potent, PC5 least potent; ref FDA, 2024a; cited from earlier work.
Data set [3] deals with Salmonella typhimurium TA98. Put plainly: Preincubation Ames test, strain TA98. The data set is classed as cell-based. The settings on record: for Effectiveness of time of preincubation for most effective S9: strain TA98, 30 vs 60 min; for Direct-acting mutagenicity in TA98: no exogenous metabolic activation (no S9). (The Ames test detects mutagens through reverse mutation in bacteria.)

Data set [4] concerns Salmonella typhimurium TA100. The data set is described as follows: Preincubation Ames test, strain TA100. The class given is cell-based. Particulars: for Effectiveness of time of preincubation for most effective S9: strain TA100, 30 vs 60 min.
In data set [5] the test system is Salmonella typhimurium TA1535. Put plainly: Preincubation Ames test, strain TA1535. The data set is classed as cell-based. Particulars: for Effectiveness of time of preincubation for most effective S9: 30 vs 60 min; for Mutagenic response in TA1535: any activation condition and preincubation time.
For data set [6], the system named is E. coli WP2 uvrA (pKM101). Put plainly: Preincubation Ames test, strain WP2 uvrA. The class given is cell-based, Escherichia coli. The settings on record: for Effectiveness of time of preincubation for most effective S9 / Effectiveness of hamster vs. rat S9s for each positive strain: strain WP2 uvrA (pKM101); for Effectiveness of time of preincubation for most effective S9: 30 vs 60 min; for Mutagenic response in WP2 uvrA (pKM101): any activation condition and preincubation time; for Effectiveness of hamster vs. rat S9s for each positive strain: H = hamster liver S9, R = rat liver S9.

The test system of data set [7] is Salmonella typhimurium tester strains TA98, TA100, TA1535, and TA1537, and Escherichia coli strain WP2 uvrA (pKM101). The data set is described as follows: Preincubation Ames test, five tester strains. The class given is cell-based. Particulars: for Effect of length of preincubation on positive responses: 30 min vs 60 min, over all strains.
The next data set concerns Ames tester strains. The settings on record: cited from earlier work.
The conditions of data set [8]: cited from earlier work.
The test system of data set [9] is CHO, V79, L5178Y/Tk+/−, TK6, HepaRG cells. Particulars: cell lines as named in the value; ref as given in Table 2 Notes; cited from earlier work.
Setting [10] is: published/posted results, ref representative Ames references of Table 2.
The mark [11] stands for this setting: with S9 activation, listed as N-nitroso-propranolol.
[12] abbreviates: listed as N-nitroso-N-ethylaniline.

Entries after “also recorded” stand apart in the source; their conditions may differ. Like-named read-outs stand apart in the source and are kept apart here.

Turning to `CN(C[C@H](O)c1cccc(O)c1)N=O` [NDSRI-13, N-[(2R)-2-Hydroxy-2-(3-hydroxyphenyl)ethyl)-N-methylnitrous amide], the AI limit in data set [1] was 100 ng/day. Further, the “CPCA Potency Category (PC)” value in data set [2] was “PC2”.
Consider `C[C@H]1CN(N=O)CCc2ccc(Cl)cc21` [NDSRI-14, (5R)-7-Chloro-5-methyl-3-nitroso-1,2,4,5-tetrahydro-3-benzazepine], for which the “Effectiveness of time of preincubation for most effective S9” value (shortened to “Effectiveness of time of preincubation”) in data set [3], in data set [4], in data set [5] (strain TA1535) and in data set [6] was 60min = 30min throughout.
Regarding `CN(CCOC(c1ccccc1)c1ccccc1)N=O` [NDSRI-16, N-(2-(Benzhydryloxy)ethyl)-N-methylnitrous amide], the “Effectiveness of time of preincubation” value in [4] is on record as 60min = 30min; in data set [5] (strain TA1535), 60min = 30min; in [6], 60min >30min. The “Effect of length of preincubation on positive responses” value (shortened to “Effect of length of preincubation”) in data set [7] was “possibly N-nitroso-desmethyl-diphenhydramine benefited from a preincubation of 60 min compared with 30 min”.
`CC(C)N(CC(O)COc1cccc2ccccc12)N=O` (stereo not shown) [NDSRI-17, N-(2-Hydroxy-3-naphthalen-1-yloxypropyl)-N-propan-2-ylnitrous amide]: the “Ames response (all S9-mediated except where noted)” value (shortened to “Ames response”) in the data set with Ames tester strains (setting [10]) is reported as “Positive; direct-acting in TA98”. For the same compound, the “Direct-acting mutagenicity in TA98” value in [3] was “b Direct acting mutagen in TA98”; in data set [3] (listed as N-nitroso-propranolol), “direct acting mutagen; also recorded: direct-acting mutagenicity of N-nitroso-propranolol was limited to TA98”. The “Effectiveness of time of preincubation” value in [3], in data set [4] and in data set [5] (strain TA1535) was 60min = 30min in each case. Also, in [4] (setting [11]), the “S9-mediated mutagenicity in TA100” value is “mutagenic”. In addition, the AI limit in data set [1] is 1500 ng/day. The “CPCA Potency Category (PC)” value in data set [2] was “PC4”. For the same compound, the “S9-mediated mutagenicity in TA1535” value in data set [5] (setting [11]) is given as “mutagenic”.
Turning to `CN(CCC=C1c2ccccc2CCc2ccccc21)N=O` [NDSRI-18, N-Methyl-N-[3-(2-tricyclo[9.4.0.03,8]pentadeca-1 (15),3,5,7,11,13-hexaenylidene)propyl]nitrous amide], the “Effectiveness of time of preincubation” value in [4], in [5] (strain TA1535) and in [6] was 60min = 30min throughout.
In the case of `O=NN(c1ccccc1CC(=O)O)c1c(Cl)cccc1Cl` [NDSRI-19, 2-[2-(2,6-Dichloro-N-nitrosoanilino)phenyl]acetic acid], in data set [1], the AI limit is reported as 1500 ng/day.
For `CN(CCC(Oc1cccc2ccccc12)c1cccs1)N=O` (stereo not shown) [NDSRI-20, N-Methyl-N-(3-naphthalen-1-yloxy-3-thiophen-2-ylpropyl) nitrous amide], the “Ames response” value with Ames tester strains (setting [10]) is recorded as “Positive”. Further, the “Effectiveness of time of preincubation” value in data set [4] turned out to be 30min >60min; in [5] (strain TA1535), 60min = 30min; in [6] it was 60min = 30min. Moreover, in [1], the AI limit is 100 ng/day. In addition, the “Mutagenicity in TGR assay” value in data set [8] (species as in value, ref as given in Table 2 Notes) is “Interim AI limit currently in force; mutagenic in rat TGR assay ([Jolly et al., 2024])”.
For the compound `CN(N=O)C1CCC(c2ccc(Cl)c(Cl)c2)c2ccccc21` (stereo not shown) [NDSRI-21, N-(4-(3,4-Dichlorophenyl)-1,2,3,4-tetrahydronaphthalen-1-yl)-N-methylnitrous amide], the “Effect of length of preincubation” value in [7] was “greater mutagenic responses with 30-min preincubations than with 60-min preincubations”. The AI limit in data set [1] is given as 100 ng/day. Besides, the “CPCA Potency Category (PC)” value in [2] is “PC2”. The “Mutagenic response in TA1535” value in [5] (listed as N-nitroso-sertraline) is “negative; also recorded: not positive”. The “Mutagenic response in WP2 uvrA (pKM101)” value in data set [6] (listed as N-nitroso-sertraline) is “positive only; also recorded: mutagenic”. For the same compound, in [6], the “Effectiveness of time of preincubation” value worked out at 30min >60min and the “Effectiveness of hamster vs. rat S9s for each positive strain” value (shortened to “Effectiveness of hamster vs. rat S9s”) is listed as “H only”.
As for `CC(C)[C@H](C(=O)O)N(Cc1ccc(-c2ccccc2-c2nn[nH]n2)cc1)N=O` [NDSRI-25, (2R)-3-Methyl-2-[nitroso-[[4-[2-(2H-tetrazol-5-yl)phenyl]phenyl]methyl]amino]butanoic acid], in the data set on Ames tester strains, the “Ames response” value is reported as “Negative”. For the same compound, the “Mutagenicity in TGR assay” value in data set [8] (in vivo) was “Also negative in mouse TGR assay ([Glowienke et al., 2022])”.
With `CCCCCCOC(=O)NC(=N)c1ccc(N(Cc2nc3cc(C(=O)N(CCC(=O)OCC)c4ccccn4)ccc3n2C)N=O)cc1` [NDSRI-29, Ethyl 3-[[2-[[4-(N-hexoxycarbonylcarbamimidoyl)-N-nitrosoanilino]methyl]-1-methylbenzimidazole-5-carbonyl]-pyridin-2-ylamino]propanoate], in [1], the AI limit was 400 ng/day. The “CPCA Potency Category (PC)” value in data set [2] is “PC3”.
On to `CCN(N=O)C(C)C` [SM-3, N-Ethyl-N-propan-2-ylnitrous amide], for which the “Mutagenicity/genotoxicity in mammalian cells in vitro” value in data set [9] was “Genotoxic in HepaRG, TK6 cells ([Li et al., 2022]; [Seo et al., 2023])”. Besides, the AI limit in data set [1] is listed as 400 ng/day. Besides, the “CPCA Potency Category (PC)” value in [2] is listed as “PC3”. Also, the “Effectiveness of time of preincubation” value in data set [5] (strain TA1535) and in data set [6] was 60min = 30min in each case.
In the case of `CC(C)N(N=O)C(C)C` [SM-5, N,N-Di(propan-2-yl)nitrous amide], in data set [7] (no S9, 10% and 30% rat or hamster liver S9, all strains, listed as NDIPA), the “Activation condition required for positive responses” value was “positives were seen only with one strain (TA1535) and under one activation condition (preincubation with 30% hamster S9 mixes); also recorded: dependent upon preincubation with 30% hamster S9; also recorded: exclusively mutagenic with hamster liver S9”. In data set [1], the AI limit is 1500 ng/day. The “CPCA Potency Category (PC)” value in [2] is “PC5”. Also, the “Mutagenic response in TA1535” value in data set [5] is “only positive strain”. Moreover, the “More effective %S9 in S9 mix of more effective S9 (H or R)” value in data set [5] (strain TA1535, 10% vs 30% S9 in the S9 mix) is on record as 30% only. For the same compound, the “Effectiveness of time of preincubation” value in [5] (strain TA1535) is recorded as 60min = 30min. In addition, the “Effectiveness of hamster vs. rat S9s” value in [5] (strain TA1535, H = hamster liver S9, R = rat liver S9) is reported as “H only”.
Take `CCN(N=O)c1ccccc1` [SM-8, N-Ethyl-N-phenylnitrous amide]: the “Ames response” value in the data set on Ames tester strains was “Positive only with comutagen”. Besides, the “Effect of length of preincubation” value in data set [7] is on record as “benefited from a preincubation of 60 min compared with 30 min”. For the same compound, the figures for the “Mutagenic response in TA1535” value in [5] (setting [12]) and in data set [5] (listed as NEPA) were “negative” and “not positive”, respectively. In addition, the “Mutagenic response in WP2 uvrA (pKM101)” value in data set [6] (setting [12]) is “positive only”; in data set [6] (listed as NEPA), “mutagenic”. Besides, the “Effectiveness of time of preincubation” value in [6] is reported as 60min ≥ 30min.
In the case of `O=NN1CCN(C2CCCC2)CC1` [SM-10, 1-Cyclopentyl-4-nitrosopiperazine], the “Mutagenicity/genotoxicity in mammalian cells in vitro” value in [9] was “Genotoxic in HepaRG cells ([Seo et al., 2023])”. Also, the “Effectiveness of time of preincubation” value in data set [4] was found to be 30min ≥60min; in data set [5] (strain TA1535) it was 60min = 30min; in data set [6] it was 60min = 30min. The AI limit in [1] is recorded as 400 ng/day. Besides, the “CPCA Potency Category (PC)” value in [2] is “PC3”. Further, the “Effectiveness of hamster vs. rat S9s” value in [6] was “H only”.
